ChEMBL document CHEMBL1136336, “Aryl[a]pyrrolo[3,4-c]carbazoles as selective cyclin D1-CDK4 inhibitors” (Bioorg Med Chem Lett, 2003)

Experiments:
[1] = target: Cyclin-dependent kinase 4/cyclin D1 (Homo sapiens, UniProt P11802); experiment: Inhibitory activity against Cyclin D1-cyclin-dependent kinase 4 by measuring the phosphorylation of RbING; type: protein-complex assay
NCI-H460 = experiment: Inhibition of human NCI-H460 (lung) carcinoma cell proliferation; type: functional, cell-based
HCT-116 = experiment: Inhibition of human HCT(colon) carcinoma cell proliferation; type: functional, cell-based
[2] = target: cAMP-dependent protein kinase (PKA) (Homo sapiens, UniProt P22694+P17612+P22612); experiment: Inhibition of Protein kinase A; type: protein assay
[3] = target: Cyclin-dependent kinase 1/cyclin B (Homo sapiens, UniProt P06493); experiment: Inhibition of Cyclin B-cyclin-dependent kinase 1; type: protein-complex assay
[4] = target: Glycogen synthase kinase-3 beta (Homo sapiens, UniProt P49841); experiment: Inhibition of Glycogen synthase kinase-3 beta
Glycogen synthase kinase-3 beta, sequence (P49841 whole entry): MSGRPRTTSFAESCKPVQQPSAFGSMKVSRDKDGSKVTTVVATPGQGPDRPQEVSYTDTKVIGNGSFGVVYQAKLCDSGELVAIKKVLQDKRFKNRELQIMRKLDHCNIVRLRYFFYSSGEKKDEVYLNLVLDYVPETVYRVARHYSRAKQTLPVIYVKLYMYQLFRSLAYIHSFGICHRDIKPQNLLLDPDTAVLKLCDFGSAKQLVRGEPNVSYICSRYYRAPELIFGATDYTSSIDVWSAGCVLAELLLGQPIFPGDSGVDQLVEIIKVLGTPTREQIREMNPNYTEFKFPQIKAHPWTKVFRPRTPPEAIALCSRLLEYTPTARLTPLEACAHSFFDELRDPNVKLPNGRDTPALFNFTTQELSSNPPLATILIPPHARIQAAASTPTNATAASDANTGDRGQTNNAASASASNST

[5] = target: Protein kinase C gamma type (Homo sapiens, UniProt P05129); experiment: Inhibition of Protein kinase C gamma
[6] = target: Protein kinase C alpha type (Homo sapiens, UniProt P17252); experiment: Inhibition of Protein kinase C alpha
[7] = target: Protein kinase C beta type (Homo sapiens, UniProt P05771); experiment: Inhibition of Protein kinase C beta 2
Protein kinase C beta type, sequence (P05771 whole entry): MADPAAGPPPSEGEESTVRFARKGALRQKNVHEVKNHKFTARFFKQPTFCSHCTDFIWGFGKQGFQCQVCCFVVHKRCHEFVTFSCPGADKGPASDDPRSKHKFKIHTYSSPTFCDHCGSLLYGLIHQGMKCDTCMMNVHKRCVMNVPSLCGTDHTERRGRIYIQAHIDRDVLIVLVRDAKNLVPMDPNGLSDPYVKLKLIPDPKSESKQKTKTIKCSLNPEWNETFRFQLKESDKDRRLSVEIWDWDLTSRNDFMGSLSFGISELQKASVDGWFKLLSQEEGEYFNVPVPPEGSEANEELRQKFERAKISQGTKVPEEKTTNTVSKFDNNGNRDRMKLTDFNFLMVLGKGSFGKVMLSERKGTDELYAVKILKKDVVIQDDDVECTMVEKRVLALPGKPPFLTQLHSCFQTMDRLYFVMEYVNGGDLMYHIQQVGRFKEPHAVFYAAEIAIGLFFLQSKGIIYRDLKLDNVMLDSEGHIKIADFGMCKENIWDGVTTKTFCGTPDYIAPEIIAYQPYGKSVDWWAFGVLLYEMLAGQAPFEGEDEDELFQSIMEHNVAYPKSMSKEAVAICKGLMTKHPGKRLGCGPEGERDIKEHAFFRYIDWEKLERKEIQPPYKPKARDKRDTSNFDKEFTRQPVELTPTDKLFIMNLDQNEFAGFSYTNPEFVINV

[8] = target: Cyclin-dependent kinase 2/cyclin E (Homo sapiens, UniProt P24941); experiment: Inhibition of Cyclin E-cyclin-dependent kinase 2; type: protein-complex assay

Cyclin-dependent kinase 4/cyclin D1, sequence (P11802 whole entry): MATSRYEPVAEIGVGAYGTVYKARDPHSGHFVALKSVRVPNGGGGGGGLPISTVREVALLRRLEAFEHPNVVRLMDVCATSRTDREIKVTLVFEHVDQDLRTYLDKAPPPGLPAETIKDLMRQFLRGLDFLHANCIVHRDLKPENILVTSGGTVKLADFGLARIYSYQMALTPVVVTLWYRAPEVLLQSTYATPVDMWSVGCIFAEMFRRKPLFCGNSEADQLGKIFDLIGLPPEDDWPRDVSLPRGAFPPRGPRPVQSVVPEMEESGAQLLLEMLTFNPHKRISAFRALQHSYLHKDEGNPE
Cyclin-dependent kinase 4/cyclin D1, sequence (P24385 whole entry, further chain): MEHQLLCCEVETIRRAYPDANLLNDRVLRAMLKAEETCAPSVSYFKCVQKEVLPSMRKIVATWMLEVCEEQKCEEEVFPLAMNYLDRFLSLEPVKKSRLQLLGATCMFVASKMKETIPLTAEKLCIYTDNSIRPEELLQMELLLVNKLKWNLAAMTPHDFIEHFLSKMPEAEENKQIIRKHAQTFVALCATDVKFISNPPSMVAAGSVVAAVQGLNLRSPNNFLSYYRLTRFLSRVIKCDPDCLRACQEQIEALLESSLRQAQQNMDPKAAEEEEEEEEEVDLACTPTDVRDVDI

Row | IC50 [1] [nM] | IC50 (NCI-H460) [nM] | IC50 (HCT-116) [nM] | Structure (SMILES) | also measured
1 | 410 | – | – | O=C1NC(=O)c2c1c1c3c(ccc1c1[nH]c4ccccc4c21)CCCC3 | –
2 | 1810 | – | – | O=C1NC(=O)c2c1c1ccncc1c1[nH]c3ccccc3c21 | –
3 | 220 | 2840 | 3020 | O=C1NC(=O)c2c1c1c3ccccc3[nH]c1c1sc3ccccc3c21 | –
4 | 150 | > 10000 | > 10000 | O=C1NC(=O)c2c1c1sccc1c1[nH]c3ccccc3c21 | –
5 | 250 | 1160 | 1050 | O=C1NC(=O)c2c1c1c3ccc[nH]c-3nc1c1[nH]c3ccccc3c21 | –
6 | 430 | > 10000 | > 10000 | O=C1NC(=O)c2c1c1ccc3ccccc3c1c1[nH]c3ccccc3c21 | –
7 | 180 | > 10000 | > 10000 | O=C1NC(=O)c2c1c1ncccc1c1[nH]c3ccccc3c21 | –
8 | > 10000 | – | – | O=C1NC(=O)c2c1c1cc3ccccc3cc1c1[nH]c3ccccc3c21 | –
9 | 260 | 3420 | 5830 | O=C1NC(=O)c2c1c1ccccc1c1[nH]c3ccccc3c21 | –
10 | 740 | – | – | O=C1NC(=O)c2c1c1[nH]cnc1c1[nH]c3ccccc3c21 [GRANULATIMIDE] | –
11 | – | – | – | O=C1NC(=O)c2c1c1c3ccccc3[nH]c1c1[nH]c3ccccc3c21 [STAUROSPORINE AGLYCON] | IC50 [2]: > 2000 nM

Row | Structure (SMILES) | IC50 [1] [nM] | IC50 (NCI-H460) [nM] | IC50 (HCT-116) [nM] | also measured
12 | O=C1NC(O)c2c1c1c3ccccc3[nH]c1c1[nH]c3ccccc3c21 (centres undefined) | 3830 | – | – | –
13 | O=C1NC(=O)c2c1c1c3ccccc3ccc1c1[nH]c3ccccc3c21 | 45 | 2110 | 5050 | IC50 [2]: > 20000 nM; IC50 [3]: 590 nM; IC50 [4]: 4380 nM; IC50 [5]: 56500 nM; IC50 [6]: 52800 nM; IC50 [7]: 9000 nM; IC50 [8]: 275 nM
14 | O=C1NCc2c1c1c3ccccc3[nH]c1c1[nH]c3ccccc3c21 [STAUROSPORINONE] | 830 | 3200 | 1720 | IC50 [2]: > 2000 nM; IC50 [8]: > 1000 nM
